# How the values were obtained:
# Assay type in all cases: cell-based, mouse
# [1] = tested on: 3T3-L1 cells stimulated by LPS; experiment: GPCR 10-pathway reporter assay in LPS-induced 3T3-L1 cells; conditions: 100 ng/mL LPS 1 hour, 50 μM AzA 6 hours
# Experimental: 3T3-L1 cells, mouse pre-adipose cells were purchased from the Korean Cell Line Bank (Seoul, Korea). The 3T3-L1 cells were cultured in Dulbecco's modified Eagle's medium (DMEM) supplemented with 10% heat-inactivated bovine calf serum (Gibco, Grand Island, N.Y., USA) and 1% PEST under 5% CO2 at 37° C. The 3T3-L1 pre-adipose cells were seeded on a 6-well plate at 1×10^6 cells/well to differentiate into adipose cells, and cultured to a density of 100%. After 2 days, the cultured 3T3-L1 pre-adipose cells were incubated in DMEM containing 10% fetal bovine serum (FBS) and an MDI solution (0.5 mM IBMX, 0.5 μM dexamethasone and 10 μg/mL insulin) for 3 days. Subsequently, the treated cells were cultured in DMEM containing 10% FBS and 10 μg/mL insulin, and the formation of lipid droplets in cells and the degree thereof were confirmed, and based on this, the differentiation into adipose cells was confirmed.
# 3T3-L1 adipose cells were seeded on a 96 well-plate at 1×10^4 cells/well and cultured for 24 hours, and transfected with a construct including a transcription factor promoter and a luciferase for 8 hours. […]
# To confirm a mechanism of an anti-inflammatory effect of an AzA, 10 transcription factors for signal transduction of GPCR were analyzed by the same method as described in Example 7-3.
# [2] = tested on: PPARα; experiment: PPARα gene expression by qPCR in Hepa1c1c-7 cells; conditions: 50 μM AzA, 2 hours, compared with control group
# Experimental: To confirm the change in PPARα gene expression level by an AzA, Hepa1c1c-7 cells were seeded onto a 24-well plate at 5×10^5 cells/mL, cultured for 24 hours, and treated with 50 μM of AzA for 2 hours. Subsequently, RNA was extracted, and cDNA synthesis was performed from the extracted RNA using a ReverTra Ace® qPCR RT kit (TOYOBO, Osaka, Japan). More specifically, to increase PCR efficiency, the extracted RNA was treated at 65° C. for 5 minutes, and the resulting product was immediately stored on ice. Subsequently, a total of 8 μL of a reaction mixture was prepared with 2 μL of a 4×DNA Master Mix containing a gDNA remover, 0.5 μg of RNA and distilled water (nuclease-free water), and reacted at 37° C. for 5 minutes. Subsequently, a 5×RT Master mix was added to the reaction mixture, reacted at 37° C. for 5 minutes, at 50° C. for 5 minutes and at 98° C. for 5 minutes to synthesize cDNA. The cDNA synthesized by the above method was subjected to qPCR using a THUNDERBIRD SYBR qPCR Mix (TOYOBO) and an iQ5 iCycler system (Bio-Rad, California, USA) according to a method known to those of ordinary skill in the art. More particularly, amplification was performed with initial denaturation at 95° C. for 4.5 minutes, and 40 cycles of additional denaturation at the same temperature for 10 seconds, annealing and cooling at 55 to 60° C. for 30 seconds, and elongation at 68° C. for 20 seconds. […]
# [3] = tested on: 3T3-L1 adipose cells; experiment: MTT cytotoxicity assay in 3T3-L1 adipose cells; conditions: 0 to 500 μM AzA, compared with control group
# Experimental: The cytotoxicity test for 3T3-L1 adipose cells was performed by a tetrazolium-based colorimetric (MTT) method. The MTT assay is a method for evaluating cytotoxicity by measuring absorbance at a suitable wavelength (usually at 500 to 600 nm) based on a metabolic process, in which a dehydrogenase in mitochondria of intact cells reduces a yellow water-soluble tetrazolium salt [3-(4,5-dimethylthiazol-2-yl)-2-5-diphenyltetrazolium bromide] (MTT) into a water-insoluble dark violet MTT formazan crystal.
compound,measurement,setting,value
"O=C(O)CCCCCCCC(=O)O [AzA, nonanedioic acid]",FOXO transcription factor activity (PI-3 Kinase/AKT pathway),[1],significant activity
same,PPARα expression,[2],significant increase
same,cytotoxicity (MTT assay),[3],toxicity was not exhibited at every concentration

# Source: patent US10786475B2, “Method for preventing, treating, or improving fatty liver by administering effective amounts of azelaic acid to a subject” (Korea University Research and Business Foundation, priority 2018, dated 2020)
